Results: publication PMC10987949, “Inhibition of HIV-1 release by ADAM metalloproteinase inhibitors” (Frontiers in Microbiology, 2024)
Entries after “also recorded” stand apart in the source; their conditions may differ.

Experiments:
[1] = test system: HIV-1BAL; assay: HIV-1BAL infection of CD8-depleted PBMC, FACS (intracellular p24, CD4, CD62L); type: cell-based; conditions: for accumulation of infected CD4−/CD62L− T cells (loss of CD62L): HIV-1BAL infected cells; for effect on HIV-1BAL infection (intracellular p24): day 7 post infection, compounds at 100 μM, GI254023X at 250 μM
[2] = test system: CD62L shedding; assay: Soluble CD62L ELISA, anti-CD3/PHA stimulated PBMC or CD4 T cells; type: cell-based, human; conditions: for inhibition at 10 µM: Homo sapiens, 10 μM compound, stimulated cells; for inhibition at 10 µM / effect on CD62L shedding / soluble CD62L: ELISA; for effect on CD62L shedding / soluble CD62L: stimulated PBMC or CD4 T cells
Summary of the method: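 Healthy-donor PBMC stimulated with okt3 anti-CD3 (~0.2 μg/mL final) plus IL-2 (20 U/mL final) in presence of compound. Soluble CD62L in supernatants measured by ELISA; viability checked by AO/PI staining.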

[3] = target: T1, recombinant ADAM10 (Homo sapiens, UniProt O14672); assay: Cleavage of fluorogenic CD62L peptide by recombinant ADAM10; type: biochemical; conditions: 2 μM compound
T1 construct: purchased R&D systems, Inc
T1 sequence (O14672 214-748): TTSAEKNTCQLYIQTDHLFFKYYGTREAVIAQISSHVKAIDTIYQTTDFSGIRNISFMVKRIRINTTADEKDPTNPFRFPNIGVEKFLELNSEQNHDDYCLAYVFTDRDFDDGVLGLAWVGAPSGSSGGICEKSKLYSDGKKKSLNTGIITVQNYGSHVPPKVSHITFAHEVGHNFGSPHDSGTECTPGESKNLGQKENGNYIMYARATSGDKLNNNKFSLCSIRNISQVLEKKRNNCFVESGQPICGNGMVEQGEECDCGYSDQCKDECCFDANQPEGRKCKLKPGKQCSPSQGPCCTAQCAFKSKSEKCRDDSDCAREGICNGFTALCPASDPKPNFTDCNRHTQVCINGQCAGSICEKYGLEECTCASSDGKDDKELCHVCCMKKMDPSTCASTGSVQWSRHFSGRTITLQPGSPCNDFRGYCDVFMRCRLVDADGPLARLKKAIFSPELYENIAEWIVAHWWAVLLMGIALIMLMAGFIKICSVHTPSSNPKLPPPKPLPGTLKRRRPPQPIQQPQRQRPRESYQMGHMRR
Source text: A fluorescence based enzymatic assay was used to measure the cleavage of fluorogenic TNF-α and L-selectin (CD62L) peptides by either recombinant ADAMs or PBMC from healthy donors. The fluorogenic substrate, synthesized by Biomatik^3, was a Dabcyl (4-(4-dimethylaminophenylazo)benzoyl)- and Edans (5-[(2-aminoethyl)amino]naphthalene-1-sulfonic acid)- conjugated 12 amino acid peptide: Dabcyl-[…]-Edans that corresponds to the extracellular membrane proximal region of CD62L. The fluorescence of the Edans group is quenched by the Dabcyl group in the intact substrate and the cleavage of the CD62L substrate peptide results in a fluorescence emission at 490 nm. The cleavage of fluorogenic TNF-α peptide (ES003, R &D systems, Inc) was detected at emission of 405 nm. The cleavage was measured in a kinetic assay every 3 min for 4 h in black 96-well plates using a Synergy_h1 fluorescent plate reader (BioTek) with 340 nm excitation and 490 nm emission wavelengths. For cleavage using recombinant ADAMs, each enzymatic reaction contained 50–200 ng of recombinant ADAM17 or 10 (R&D systems, Inc) mixed with 5–10 μM fluorogenic TNFα peptide ES003 (R&D systems, Inc) or CD62L peptide with or without indicated inhibitors in 100 μL assay buffer of 25 mM Tris at pH 9.0, 2.5 μM ZnCl2, and 0.005% Brij-35 (w/v). For cell-based cleavage of the fluorescent CD62L-peptide substrate, 300,000 PBMC at 2×10^6/ml density were mixed with 10 μM fluorescent CD62L-peptide and various inhibitors in a black 96-well plate in 150 μL culture media (RPMI 1640, 10% FBS, 1% penicillin streptomycin). PBMC were stimulated with anti-CD3 antibody for 2–4 days as described above.
Supplemental Figure 3. Inhibition of ADAM10 enzymatic activity by 14mb. A) chemical structure of 3-Cl-phenylpyrrolidine tartrate diamide analogs 14m and 15. B)Inhibition of recombinant ADAM10 cleavage of a fluorogenic CD62L peptide substrate in the presence of titrating concentrations of 14mb. The concentration-dependent enzymatic activities are fitted with non-linear regression of normalized inhibition response model. C). Inhibition of ADAM10 enzymatic cleavage of fluorogenic CD62L peptide by various […]

[4] = test system: HIV-1LAI; assay: HIV-1LAI infection of CD8-depleted PBMC; type: cell-based; conditions: 100 μM
Source text: The use of healthy human peripheral blood mononuclear cells (PBMC) is approved by the Department of Transfusion Medicine at the Clinical Center of National Institutes of Health. The use of PBMC from HIV-1 infected individuals for the study was approved under protocol #02-I-0202 by the Institutional Review Board (IRB) of National Institutes of Health with written informed consent from all donors. Peripheral blood mononuclear cells (PBMCs) from anonymous healthy donors were isolated by Ficoll-Paque gradient, and cultured in RPMI 1640 supplemented with 10% FBS, 1%Penicillin/streptomycin, 1% HEPES buffer and 20 U/mL IL-2 (culture media); and stimulated with 0.2 μg/mL anti-CD3 antibody (okt3) for 2 days. CD8^+ T cells were depleted prior to infection using the Stemcell CD8 positive selection kit according to manufacturer’s instructions. […] The infections were proceeded with or without inhibitors for 6 days or otherwise specified number of days and then analyzed by FACS staining using fluorescent labeled CD4-BV510, CD62L-APC and CD3-PEC7 antibodies (BD Biosciences). […] Replication competent HIV-1 viruses were obtained from the NIH AIDS Reagent Program^4, and expanded by infecting activated CD8-depleted PBMCs, and TCID50 was determined by p24 ELISA.

| Structure (SMILES) | accumulation of infected CD4−/CD62L− T cells (loss of CD62L) [1] | effect on HIV-1BAL infection (intracellular p24) [1] | inhibition at 10 µM [2] | effect on CD62L shedding / soluble CD62L [2] | inhibition of ADAM10 cleavage of CD62L substrate peptide [3] | inhibition when added on day 3 and 5 after initiation of infection ([1]; 100μM, added day 0, 3, 5 post infection) | effect on 3,4-dichloroisocouman enhanced CD62L shedding ([2]; stimulated PBMC) | effect on X4 tropic HIV-1LAI infection [4] |
| --- | --- | --- | --- | --- | --- | --- | --- | --- |
| CNC(=O)[C@@H](NC(=O)[C@H](CCCc1ccccc1)[C@H](C)N(O)C=O)C(C)(C)C [GI254023X] | did not inhibit the accumulation | fail to significantly suppress the viral infections | > 50% | suppressed CD62L shedding | completely suppressed | – | – | – |
| CNC(=O)[C@H](Cc1ccccc1)NC(=O)[C@H](CC(C)C)[C@H](CSc1cccs1)C(=O)NO [BB-94, Batimastat] | reduced the accumulation | inhibited HIV-1BAL infections | > 50% | suppressed CD62L shedding; also recorded: inhibited | indistinguishable with that of fluorogenic peptide CD62L-only without the enzyme; also recorded: completely suppressed | progressive reduction in its inhibition | blocked | inhibited the X4 tropic HIV-1LAI infections |
| CC1(C)SCCN(S(=O)(=O)c2ccc(Oc3ccncc3)cc2)[C@H]1C(=O)NO [prinomastat] | reduced the accumulation | inhibited HIV-1BAL infections | > 50% | suppressed CD62L shedding | completely suppressed | – | – | inhibited the X4 tropic HIV-1LAI infections |
